Where two headings read alike, the source gives them in different places.
Experiments:
[1] = test system: NFF, neonatal foreskin fibroblasts; test: Cell survival assay (clonogenic survival, SRB), normal cells; assay type: cell-based, human; settings: SRB
Procedure, shortened: (§1)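 Cells (5×10^3/well, RPMI 1640 with 10% FCS) treated 24 h with compound at 0.01-10 μg/mL, then washed and grown 72 h drug-free at 37 °C, 5% CO2. Survival read by SRB staining after methylated-spirit fixation, absorbance 564 nm.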

MM96L melanoma cells = test: Cell survival assay (clonogenic survival, SRB); assay type: cell-based, human; settings: for SI (Selectivity Index = IC50 (NFF)/IC50 (MM96L)): NFF vs MM96L
Procedure, shortened: as §1

[2] = Table 6, IC50 (NFF)/IC50 (MM96L)
[3] = Table 5, 24 hours with compound, further growth, read-out: IC50 NFF
[4] = Table 5, 24 hours with compound, further growth, SRB, read-out: IC50 MM96L
[5] = Table 5, Selectivity Index = IC50 (NFF)/IC50 (MM96L)
[6] = Homo sapiens, Fibroblast, NFF normal fibroblasts, 24 h with compound, further 72 h growth, read-out: IC50 (uM) NFF
[7] = Homo sapiens, MM96L, MM96L melanoma, 24 h with compound, further 72 h growth, SRB, read-out: IC50 (uM) MM96L

SMILES: CN(C)c1ccc(C(=O)N[C@@H](CSCCCC(=O)NO)C(=O)NCc2ccccc2)cc1 [Example 73]
- IC50 ([1]; Homo sapiens, Fibroblast, 24 h, Table 6, 24 hours with compound, further growth, read-out: IC50 (μM) NFF): 0.35 ± 0.07 µM
- IC50 (MM96L melanoma cells; Homo sapiens, MM96L, 24 h, Table 6, 24 hours with compound, further growth, SRB, read-out: IC50 (μM) MM96L): 0.14 ± 0.09 µM
- Selectivity (MM96L melanoma cells; [2]): 2.5

SMILES: CC(C)CCC(=O)N[C@@H](CSCCCC(=O)NO)C(=O)NCc1ccccc1 [Example 50]
- IC50 [1, 3]: 25 ± 4 µM
- IC50 (MM96L melanoma cells; [4]): 7 ± 2 µM
- Selectivity (MM96L melanoma cells; [5]): 3.6

SMILES: CN(C)c1ccc(C(=O)N[C@@H](CSCCCC(=O)NO)C(=O)NCCc2cccc(Br)c2)cc1 [Example 85]
- IC50 ([1]; Table 6, 24 hours with compound, further growth, read-out: IC50 (μM) NFF): 3.1 ± 0.1 µM
- IC50 (MM96L melanoma cells; Table 6, 24 hours with compound, further growth, SRB, read-out: IC50 (μM) MM96L): 0.9 ± 0.1 µM
- Selectivity (MM96L melanoma cells; [2]): 3.4

SMILES: O=C(/C=C/c1ccccc1)N[C@@H](CSCCCC(=O)NO)C(=O)NCc1cccnc1 [Example 101]
- IC50 ([1]; Homo sapiens, Fibroblast, 24 h, Table 7, 24 hours with compound, further growth, read-out: IC50 (μM) NFF): 13.2 ± 0.7 µM
- IC50 (MM96L melanoma cells; Homo sapiens, MM96L, 24 h, Table 7, 24 hours with compound, further growth, SRB, read-out: IC50 (μM) MM96L): 0.9 ± 0.2 µM
- Selectivity (MM96L melanoma cells; Table 7, IC50 (NFF)/IC50 (MM96L)): 15.1

SMILES: CN(C)c1ccc(C(=O)N[C@@H](CSCCCC(=O)NO)C(=O)NCc2ccc(C(=O)NCCc3ccc(O)cc3)cc2)cc1 [Example 110]
- IC50 ([1]; Table 8, 24 hours with compound, further growth, read-out: IC50 (μM) NFF): 16.1 µM
- IC50 (MM96L melanoma cells; Table 8, 24 hours with compound, further growth, SRB, read-out: IC50 (μM) MM96): 2.98 µM
- Selectivity (MM96L melanoma cells; Table 8, IC50 (NFF)/IC50 (MM96L)): 5.4

SMILES: O=C(CCCSC[C@H](NC(=O)c1ccc(F)cc1Cl)C(=O)NCc1ccccc1)NO [Example 28]
- IC50 [1, 3]: > 100 µM
- IC50 (MM96L melanoma cells; [4]): 28 ± 3 µM
- Selectivity (MM96L melanoma cells; [5]): >3

SMILES: O=C(CCCCC[C@H](NC(=O)Cc1c[nH]c2ccccc12)C(=O)NCc1ccccc1)NO [Example 162]
- IC50 [1, 6]: > 2.22 µM
- IC50 (MM96L melanoma cells; [7]): 0.332 µM
- IC50 (MM96L melanoma cells; Homo sapiens, MM96L, most preferred compounds, exemplary examples, read-out: potency of IC50 against the MM96 melanoma cells): ≤ 0.5 µM
- SI (Selectivity Index = IC50 (NFF)/IC50 (MM96L)) (MM96L melanoma cells): >7

SMILES: O=C(CCCSC[C@H](NC(=O)C1CCCC1)C(=O)NCc1ccccc1)NO [Example 54]
- IC50 [1, 3]: > 100 µM
- IC50 (MM96L melanoma cells; [4]): 21 ± 3 µM
- Selectivity (MM96L melanoma cells; [5]): >5

SMILES: O=C(/C=C/c1c[nH]c2ccccc12)N[C@@H](CCCCCC(=O)NO)C(=O)NCc1ccccc1 [Example 167]
- IC50 [1, 6]: 10.4 µM
- IC50 (MM96L melanoma cells; [7]): 3.24 µM
- SI (Selectivity Index = IC50 (NFF)/IC50 (MM96L)) (MM96L melanoma cells): 3.2

— patent publication US20080004290A1, “Anti-Cancer Agents” (THE UNIVERSITY OF QUEENSLAND, priority 2003, published 2008)
